Results as given in ChEMBL document CHEMBL1201862, “PubChem BioAssay data set” (2004).
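Compound exposure: 48 hours, 5 concentrations, 96-well plates. Abbreviation: GI50, concentration required for 50% inhibition of growth.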 Activity calls are given as the source filed them. Rule as the data show it: active = GI50 up to about 1.1 µM and inactive = higher.

Assays:
Assay in all cases: DTP human tumour cell line panel, 48 h
TK-10 = tested on: TK-10
A549 = tested on: A549
K562 = tested on: K562
HCC 2998 = tested on: HCC 2998
SW-620 = tested on: SW-620
NCI-H226 = tested on: NCI-H226
T47D = tested on: T47D
CAKI-1 = tested on: CAKI-1
SF-295 = tested on: SF-295
SK-MEL-28 = tested on: SK-MEL-28
HOP-62 = tested on: HOP-62
COLO 205 = tested on: COLO 205
OVCAR-3 = tested on: OVCAR-3
NCI-H460 = tested on: NCI-H460
UACC-257 = tested on: UACC-257
OVCAR-5 = tested on: OVCAR-5
RPMI-8226 = tested on: RPMI-8226
RXF 393 = tested on: RXF 393
Hs-578T = tested on: Hs-578T
HCT-15 = tested on: HCT-15
SR = tested on: SR
MDA-MB-435 = tested on: MDA-MB-435
SK-MEL-5 = tested on: SK-MEL-5
OVCAR-4 = tested on: OVCAR-4
HCT-116 = tested on: HCT-116
HL-60 = tested on: HL-60
MCF7 = tested on: MCF7
HT-29 = tested on: HT-29
SK-MEL-2 = tested on: SK-MEL-2
A498 = tested on: A498
UO-31 = tested on: UO-31
MDA-N = tested on: MDA-N
CCRF-CEM = tested on: CCRF-CEM
EKVX = tested on: EKVX
KM12 = tested on: KM12
OVCAR-8 = tested on: OVCAR-8
IGROV-1 = tested on: IGROV-1
U-251 = tested on: U-251
UACC-62 = tested on: UACC-62
MOLT-4 = tested on: MOLT-4
SN12C = tested on: SN12C
DU-145 = tested on: DU-145
ACHN = tested on: ACHN
786-0 = tested on: 786-0
NCI/ADR-RES = tested on: NCI/ADR-RES
NCI-H23 = tested on: NCI-H23
SNB-19 = tested on: SNB-19
BT-549 = tested on: BT-549
M14 = tested on: M14
NCI-H522 = tested on: NCI-H522
SF-268 = tested on: SF-268
LOX IMVI = tested on: LOX IMVI
MDA-MB-231 = tested on: MDA-MB-231
SK-OV-3 = tested on: SK-OV-3
Malme-3M = tested on: Malme-3M
HOP-92 = tested on: HOP-92
SF-539 = tested on: SF-539
PC-3 = tested on: PC-3

Q: What does the source list for Clc1ccc(-c2ccc(-c3nnc(COc4ccc(OCc5nnc(-c6ccc(-c7ccc(Cl)cc7Cl)o6)o5)c(Cl)c4)o3)o2)c(Cl)c1?
A: GI50 (TK-10): 84.5 µM (inactive); GI50 (A549): > 100 µM (inactive); GI50 (K562): > 100 µM (inactive); GI50 (HCC 2998): > 100 µM (inactive); GI50 (SW-620): > 100 µM (inactive); GI50 (NCI-H226): > 100 µM (inactive); GI50 (T47D): > 100 µM (inactive); GI50 (CAKI-1): > 100 µM (inactive); GI50 (SF-295): > 100 µM (inactive); GI50 (SK-MEL-28): > 100 µM (inactive); GI50 (HOP-62): 36.6 µM (inactive); GI50 (COLO 205): > 100 µM (inactive); GI50 (OVCAR-3): > 100 µM (inactive); GI50 (NCI-H460): > 100 µM (inactive); GI50 (UACC-257): > 100 µM (inactive); GI50 (OVCAR-5): > 100 µM (inactive); GI50 (RPMI-8226): > 100 µM (inactive); GI50 (RXF 393): 16.2 µM (inactive); GI50 (Hs-578T): 83 µM (inactive); GI50 (HCT-15): > 100 µM; GI50 (SR): 28.8 µM (inactive); GI50 (MDA-MB-435): > 100 µM (inactive); GI50 (SK-MEL-5): > 100 µM (inactive); GI50 (OVCAR-4): > 100 µM (inactive); GI50 (HCT-116): > 100 µM (inactive); GI50 (HL-60): > 100 µM (inactive); GI50 (MCF7): > 100 µM (inactive); GI50 (HT-29): > 100 µM (inactive); GI50 (SK-MEL-2): 25.3 µM (inactive); GI50 (A498): > 100 µM (inactive); GI50 (UO-31): > 100 µM (inactive); GI50 (MDA-N): > 100 µM (inactive); GI50 (CCRF-CEM): 32.4 µM (inactive); GI50 (EKVX): > 100 µM (inactive); GI50 (KM12): > 100 µM (inactive); GI50 (OVCAR-8): 45.7 µM (inactive); GI50 (IGROV-1): > 100 µM (inactive); GI50 (U-251): 40 µM (inactive); GI50 (UACC-62): > 100 µM (inactive); GI50 (MOLT-4): 28.4 µM (inactive); GI50 (SN12C): > 100 µM (inactive); GI50 (DU-145): > 100 µM (inactive); GI50 (ACHN): > 100 µM (inactive); GI50 (786-0): > 100 µM (inactive); GI50 (NCI/ADR-RES): > 100 µM (inactive); GI50 (NCI-H23): > 100 µM (inactive); GI50 (SNB-19): 61.7 µM (inactive); GI50 (BT-549): > 100 µM (inactive); GI50 (M14): > 100 µM (inactive); GI50 (NCI-H522): > 100 µM (inactive); GI50 (SF-268): 56.1 µM (inactive); GI50 (LOX IMVI): > 100 µM (inactive); GI50 (MDA-MB-231): > 100 µM (inactive)

Q: With CC[C@@H]1/C=C/C=C/C[C@H](C)[C@@H](O)[C@](C)(O)C(=O)[C@H](C)[C@@H](O)[C@H](C)C(=O)[C@H](C)[C@@H](O)[C@H](C)/C=C/C(=O)O[C@H]2[C@@H](C)[C@@H](CC1)O[C@@]1(CC[C@@H](C)[C@@H](CC(C)O)O1)[C@@H]2C (stereo not given in full) as the molecule, how does the GI50 (TK-10) read?
A: 1.65 µM (inactive)

Q: What about the GI50 (A549) of the same molecule?
A: < 0.01 µM (active)

Q: And the GI50 (SK-OV-3)?
A: 3.13 µM (inactive)

Q: And the GI50 (K562)?
A: < 0.01 µM (active)

Q: What about the GI50 (HCC 2998) of the same molecule?
A: 1.52 µM (inactive)

Q: What about the GI50 (SW-620) of the same molecule?
A: 2.92 µM (inactive)

Q: And the GI50 (Malme-3M)?
A: 3.49 µM (inactive)

Q: And the GI50 (T47D)?
A: < 0.01 µM (active)

Q: What about the GI50 (HOP-92) of the same molecule?
A: 1.59 µM (inactive)

Q: And the GI50 (CAKI-1)?
A: 1.73 µM (inactive)

Q: And the GI50 (SF-295)?
A: < 0.01 µM (active)

Q: What about the GI50 (SK-MEL-28) of the same molecule?
A: 6.5 µM (inactive)

Q: What about the GI50 (COLO 205) of the same molecule?
A: < 0.01 µM (active)

Q: What about the GI50 (NCI-H460) of the same molecule?
A: 0.499 µM (active)

Q: What about the GI50 (UACC-257) of the same molecule?
A: < 0.01 µM (active)

Q: And the GI50 (OVCAR-5)?
A: 1.68 µM (inactive)

Q: What about the GI50 (SF-539) of the same molecule?
A: 3.58 µM (inactive)

Q: And the GI50 (RPMI-8226)?
A: < 0.0162 µM (active)

Q: What about the GI50 (RXF 393) of the same molecule?
A: 1.68 µM (inactive)

Q: And the GI50 (Hs-578T)?
A: 2.88 µM (inactive)

Q: What about the GI50 (HCT-15) of the same molecule?
A: 1.86 µM

Q: And the GI50 (SR)?
A: 2 µM (inactive)

Q: What about the GI50 (MDA-MB-435) of the same molecule?
A: 1.52 µM (inactive)

Q: And the GI50 (SK-MEL-5)?
A: < 0.01 µM (active)

Q: What about the GI50 (HCT-116) of the same molecule?
A: 1.1 µM (active)

Q: What about the GI50 (HL-60) of the same molecule?
A: < 0.01 µM (active)

Q: And the GI50 (MCF7)?
A: < 0.01 µM (active)

Q: What about the GI50 (HT-29) of the same molecule?
A: 1.36 µM (inactive)

Q: And the GI50 (SK-MEL-2)?
A: 2.13 µM (inactive)

Q: And the GI50 (PC-3)?
A: < 0.01 µM (active)

Q: What about the GI50 (UO-31) of the same molecule?
A: 0.0307 µM (active)

Q: What about the GI50 (MDA-N) of the same molecule?
A: 1.61 µM (inactive)

Q: And the GI50 (CCRF-CEM)?
A: 1.22 µM (inactive)

Q: And the GI50 (EKVX)?
A: < 0.01 µM (active)

Q: What about the GI50 (KM12) of the same molecule?
A: 1.69 µM (inactive)

Q: And the GI50 (OVCAR-8)?
A: < 0.01 µM (active)

Q: What about the GI50 (IGROV-1) of the same molecule?
A: 1.98 µM (inactive)

Q: And the GI50 (U-251)?
A: < 0.01 µM (active)

Q: What about the GI50 (UACC-62) of the same molecule?
A: 1.71 µM (inactive)

Q: And the GI50 (MOLT-4)?
A: 1.3 µM (inactive)

Q: And the GI50 (SN12C)?
A: 1.72 µM (inactive)

Q: What about the GI50 (DU-145) of the same molecule?
A: 1.88 µM (inactive)

Q: What about the GI50 (ACHN) of the same molecule?
A: 1.35 µM (inactive)

Q: And the GI50 (786-0)?
A: 1.85 µM (inactive)

Q: What about the GI50 (NCI-H23) of the same molecule?
A: < 0.01 µM (active)

Q: And the GI50 (SNB-19)?
A: < 0.01 µM (active)

Q: And the GI50 (BT-549)?
A: 1.52 µM (inactive)

Q: What about the GI50 (M14) of the same molecule?
A: 1.24 µM (inactive)

Q: And the GI50 (NCI-H522)?
A: < 0.01 µM (active)

Q: And the GI50 (SF-268)?
A: 2.7 µM (inactive)

Q: What about the GI50 (LOX IMVI) of the same molecule?
A: 1.68 µM (inactive)

Q: And the GI50 (MDA-MB-231)?
A: 1.83 µM (inactive)
